Assay results: US20250313533A1, “QUINOLINE CARBOXYLIC ACID ESTER COMPOUND AND PREPARATION METHOD AND USE THEREOF” (priority 2019, published 2025)

Legend:
[1] = tested on: black shank in potatoes; assay: Living crops in vivo protective activity, potatoes (root irrigation); conditions: Solanum tuberosum, read-out: efficacy against black shank in potatoes; for pest or weed control at 5 ppm: dosage 5 ppm; for pest or weed control at 10 ppm: dosage 10 ppm
Protocol: Root irrigation was carried out on the potatoes for tests according to the designed concentration of the agents. The dosage for each plant was 200 mL and was kept consistent (also for the control). The black shank bacteria were inoculated on the second day after the application. The results were investigated according to the disease condition.

[2] = tested on: bacterial blight in rice; assay: whole plant or invertebrate; conditions: Oryza sativa, read-out: efficacy against bacterial blight in rice
[3] = tested on: fruit blotch in watermelons; assay: whole plant or invertebrate; conditions: read-out: efficacy against fruit blotch in watermelons
[4] = tested on: pathogenic bacteria causing bacterial wilt in cassava; assay: organism not typed; type: cell-based; conditions: read-out: inhibitory rate
[5] = tested on: pathogenic bacteria causing bacterial blight in rice; assay: whole plant or invertebrate; type: cell-based, xanthomonas; conditions: read-out: inhibitory rate
[6] = tested on: pathogenic bacteria causing black rot in Chinese cabbages; assay: In vitro bactericidal activity, black rot in Chinese cabbages; type: cell-based, xanthomonas; conditions: Xanthomonas, read-out: inhibitory rate; for inhibition at 1 ppm: dosage 1 ppm; for inhibition at 5 ppm: dosage 5 ppm
[7] = tested on: pathogenic bacteria causing black shank in potatoes; assay: In vitro bactericidal activity, black shank in potatoes; type: cell-based; conditions: read-out: inhibitory rate; for inhibition at 1 ppm: dosage 1 ppm; for inhibition at 5 ppm: dosage 5 ppm
[8] = tested on: pathogenic bacteria causing bacterial angular leaf spot in cucumbers; assay: In vitro bactericidal activity, bacterial angular leaf spot in cucumbers; type: cell-based, pseudomonas; conditions: read-out: inhibitory rate; for inhibition at 1 ppm: dosage 1 ppm; for inhibition at 5 ppm: dosage 5 ppm
[9] = tested on: pathogenic bacteria causing stem rot in sweet potatoes; assay: In vitro bactericidal activity, stem rot in sweet potatoes; type: cell-based, dikia; conditions: read-out: inhibitory rate; for inhibition at 1 ppm: dosage 1 ppm; for inhibition at 5 ppm: dosage 5 ppm
[10] = tested on: indoor potted cucumber seedlings; assay: Effect of improving growth and development of crops; type: in vivo; design: Rate of growth rate increase (%): concentration or dose not given beside the values; conditions: versus blank control; for Rate of chlorophyll content increase (%) / Rate of leaf area increase (%): 14 days after application; for Rate of growth rate increase (%): plant height 14 days after application; for Rate of leaf area increase (%): second leaf
How it was run: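 Pot-grown seedlings kept indoors; height plus second-leaf length (base to tip) and width (upper shoulder) taken pre-treatment and at day 14. Derived: growth-rate increase %, leaf area gain, SPAD chlorophyll gain.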

[11] = tested on: pathogenic bacteria causing bacterial wilt in tobacco; assay: whole plant or invertebrate; type: cell-based, ralstonia; conditions: read-out: inhibitory rate
[12] = tested on: bacterial wilt in tobacco; assay: whole plant or invertebrate; conditions: Nicotiana tabacum, read-out: efficacy against bacterial wilt in tobacco
[13] = tested on: pathogenic bacteria causing fruit blotch in watermelons; assay: In vitro bactericidal activity, fruit blotch in watermelons; type: cell-based, acidovorax; conditions: read-out: inhibitory rate; for inhibition at 1 ppm: dosage 1 ppm; for inhibition at 5 ppm: dosage 5 ppm
[14] = tested on: pathogenic bacteria causing fire blight in pears; assay: In vitro bactericidal activity, fire blight in pears; type: cell-based, erwinia; conditions: Erwinia, read-out: inhibitory rate; for inhibition at 1 ppm: dosage 1 ppm; for inhibition at 5 ppm: dosage 5 ppm
[15] = tested on: stem rot in sweet potatoes; assay: whole plant or invertebrate; conditions: read-out: efficacy against stem rot in sweet potatoes
[16] = tested on: cucumber seedlings; assay: Safety for plant growth after application; type: in vivo; conditions: dosage 200 ppm
How it was run: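 Compound applied to indoor cucumber seedlings in pots. Growth then scored: height increase rate, leaf chlorophyll, leaf area.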

[17] = tested on: soft rot in Chinese cabbages; assay: whole plant or invertebrate; conditions: 48 h, read-out: efficacy against soft rot in Chinese cabbages

Row | Compound | pest or weed control at 5 ppm [1] | pest or weed control at 10 ppm [1] | pest or weed control at 5 ppm [2] | pest or weed control at 10 ppm [2] | pest or weed control at 5 ppm [3] | pest or weed control at 10 ppm [3] | inhibition at 1 ppm [4] | inhibition at 5 ppm [4] | inhibition at 1 ppm [5] | inhibition at 5 ppm [5] | inhibition at 1 ppm [6] | inhibition at 5 ppm [6] | inhibition at 1 ppm [7] | inhibition at 5 ppm [7] | inhibition at 1 ppm [8] | inhibition at 5 ppm [8] | inhibition at 1 ppm [9] | inhibition at 5 ppm [9] | Rate of chlorophyll content increase (%) [10] | Rate of growth rate increase (%) [10] | further results
1 | CCOc1cc2c(cc1F)c(=O)c(C(=O)OCCO)cn2C1CC1 [Compound 265] | ≥ 90% | ≥ 90% | ≥ 90% | ≥ 90% | ≥ 90% | ≥ 90% | ≥ 90% | ≥ 90% | ≥ 90% | ≥ 90% | ≥ 90% | ≥ 90% | ≥ 90% | ≥ 90% | ≥ 90% | ≥ 90% | ≥ 90% | ≥ 90% | 13% | 12% | Rate of leaf area increase (%) [10]: 15%; inhibition at 1 ppm [11]: ≥ 90%; inhibition at 5 ppm [11]: ≥ 90%; pest or weed control at 5 ppm [12]: ≥ 90%; pest or weed control at 10 ppm [12]: ≥ 90%; inhibition at 1 ppm [13]: ≥ 90%; inhibition at 5 ppm [13]: ≥ 90%; inhibition at 1 ppm [14]: ≥ 90%; inhibition at 5 ppm [14]: ≥ 90%; pest or weed control at 5 ppm [15]: ≥ 90%; pest or weed control at 10 ppm [15]: ≥ 90%; safety for plant growth (discoloration, necrosis, wilt, malformation) [16]: safe for plant growth; pest or weed control at 5 ppm [17]: ≥ 90%; pest or weed control at 10 ppm [17]: ≥ 90%
2 | COCCOC(=O)c1cn(C2CC2)c2cc(N(C)C)c(F)cc2c1=O [Compound 414] | ≥ 90% | ≥ 90% | ≥ 90% | ≥ 90% | ≥ 90% | ≥ 90% | ≥ 90% | ≥ 90% | ≥ 90% | ≥ 90% | ≥ 90% | ≥ 90% | ≥ 90% | ≥ 90% | ≥ 90% | ≥ 90% | ≥ 90% | ≥ 90% | 15% | 12% | Rate of leaf area increase (%) [10]: 18%; inhibition at 1 ppm [11]: ≥ 90%; inhibition at 5 ppm [11]: ≥ 90%; pest or weed control at 5 ppm [12]: ≥ 90%; pest or weed control at 10 ppm [12]: ≥ 90%; inhibition at 1 ppm [13]: ≥ 90%; inhibition at 5 ppm [13]: ≥ 90%; inhibition at 1 ppm [14]: ≥ 90%; inhibition at 5 ppm [14]: ≥ 90%; pest or weed control at 5 ppm [15]: ≥ 90%; pest or weed control at 10 ppm [15]: ≥ 90%; safety for plant growth (discoloration, necrosis, wilt, malformation) [16]: safe for plant growth; pest or weed control at 5 ppm [17]: ≥ 90%; pest or weed control at 10 ppm [17]: ≥ 90%
3 | O=C(OCCCO)c1cn(C2CC2)c2cc(OCC(F)(F)F)c(F)cc2c1=O [Compound 329] | ≥ 90% | ≥ 90% | ≥ 90% | ≥ 90% | ≥ 90% | ≥ 90% | ≥ 90% | ≥ 90% | ≥ 90% | ≥ 90% | ≥ 90% | ≥ 90% | ≥ 90% | ≥ 90% | ≥ 90% | ≥ 90% | ≥ 90% | ≥ 90% | 17% | 13% | Rate of leaf area increase (%) [10]: 17%; inhibition at 1 ppm [11]: ≥ 90%; inhibition at 5 ppm [11]: ≥ 90%; pest or weed control at 5 ppm [12]: ≥ 90%; pest or weed control at 10 ppm [12]: ≥ 90%; inhibition at 1 ppm [13]: ≥ 90%; inhibition at 5 ppm [13]: ≥ 90%; inhibition at 1 ppm [14]: ≥ 90%; inhibition at 5 ppm [14]: ≥ 90%; pest or weed control at 5 ppm [15]: ≥ 90%; pest or weed control at 10 ppm [15]: ≥ 90%; safety for plant growth (discoloration, necrosis, wilt, malformation) [16]: safe for plant growth; pest or weed control at 5 ppm [17]: ≥ 90%; pest or weed control at 10 ppm [17]: ≥ 90%
4 | CCN(CC)c1cc2c(cc1F)c(=O)c(C(=O)OCCO)cn2C1CC1 [Compound 419] | ≥ 90% | ≥ 90% | ≥ 90% | ≥ 90% | ≥ 90% | ≥ 90% | ≥ 90% | ≥ 90% | ≥ 90% | ≥ 90% | ≥ 90% | ≥ 90% | ≥ 90% | ≥ 90% | ≥ 90% | ≥ 90% | ≥ 90% | ≥ 90% | 15% | 11% | Rate of leaf area increase (%) [10]: 17%; inhibition at 1 ppm [11]: ≥ 90%; inhibition at 5 ppm [11]: ≥ 90%; pest or weed control at 5 ppm [12]: ≥ 90%; pest or weed control at 10 ppm [12]: ≥ 90%; inhibition at 1 ppm [13]: ≥ 90%; inhibition at 5 ppm [13]: ≥ 90%; inhibition at 1 ppm [14]: ≥ 90%; inhibition at 5 ppm [14]: ≥ 90%; pest or weed control at 5 ppm [15]: ≥ 90%; pest or weed control at 10 ppm [15]: ≥ 90%; safety for plant growth (discoloration, necrosis, wilt, malformation) [16]: safe for plant growth; pest or weed control at 5 ppm [17]: ≥ 90%; pest or weed control at 10 ppm [17]: ≥ 90%
